The values below come from patent US10100019B2.

As a reminder, the GI50 is the concentration that inhibits growth by half.

Read-outs that look alike come from different tables or passages of the source. Some results are limits rather than exact numbers.

The subject of data set [1] is H3122 cells. Description: Cytotoxicity in non-small cell lung cancer cell line H3122 (SRB). Particulars: H3122 cells, three days, SRB. The format is cell-based, human. The protocol:
Particularly, 4,000 H3122 cells containing ALK enzyme were distributed in each well of a 96 well plate together with 100 μl of DMEM (Dulbecco's Modified Eagle's Medium). One day later, the compound of the present invention was added to each well at different concentrations of […]. DMSO (dimethylsulfoxide) was added to the well that was not loaded with the compound by the same amount as the compound. Three days after the addition of the compound, DMEM was eliminated. 10% TCA (trichloroacetic acid) was added to fix the cells. The wells were washed with running water three times and the live cells were stained with SRB solution (1 sulphorodamine B). Then, OD was measured to calculate the population of the live cells.

For data set [2], the target named is ALK WT (Homo sapiens (Human), UniProt Q9UM73). The note with it: read-out: ALK WT (IC50 μM); ALK enzyme, HTRF. For orientation: In TR-FRET formats the signal depends on donor and acceptor labels being close together.
Sequence of ALK WT (Q9UM73 19-1620): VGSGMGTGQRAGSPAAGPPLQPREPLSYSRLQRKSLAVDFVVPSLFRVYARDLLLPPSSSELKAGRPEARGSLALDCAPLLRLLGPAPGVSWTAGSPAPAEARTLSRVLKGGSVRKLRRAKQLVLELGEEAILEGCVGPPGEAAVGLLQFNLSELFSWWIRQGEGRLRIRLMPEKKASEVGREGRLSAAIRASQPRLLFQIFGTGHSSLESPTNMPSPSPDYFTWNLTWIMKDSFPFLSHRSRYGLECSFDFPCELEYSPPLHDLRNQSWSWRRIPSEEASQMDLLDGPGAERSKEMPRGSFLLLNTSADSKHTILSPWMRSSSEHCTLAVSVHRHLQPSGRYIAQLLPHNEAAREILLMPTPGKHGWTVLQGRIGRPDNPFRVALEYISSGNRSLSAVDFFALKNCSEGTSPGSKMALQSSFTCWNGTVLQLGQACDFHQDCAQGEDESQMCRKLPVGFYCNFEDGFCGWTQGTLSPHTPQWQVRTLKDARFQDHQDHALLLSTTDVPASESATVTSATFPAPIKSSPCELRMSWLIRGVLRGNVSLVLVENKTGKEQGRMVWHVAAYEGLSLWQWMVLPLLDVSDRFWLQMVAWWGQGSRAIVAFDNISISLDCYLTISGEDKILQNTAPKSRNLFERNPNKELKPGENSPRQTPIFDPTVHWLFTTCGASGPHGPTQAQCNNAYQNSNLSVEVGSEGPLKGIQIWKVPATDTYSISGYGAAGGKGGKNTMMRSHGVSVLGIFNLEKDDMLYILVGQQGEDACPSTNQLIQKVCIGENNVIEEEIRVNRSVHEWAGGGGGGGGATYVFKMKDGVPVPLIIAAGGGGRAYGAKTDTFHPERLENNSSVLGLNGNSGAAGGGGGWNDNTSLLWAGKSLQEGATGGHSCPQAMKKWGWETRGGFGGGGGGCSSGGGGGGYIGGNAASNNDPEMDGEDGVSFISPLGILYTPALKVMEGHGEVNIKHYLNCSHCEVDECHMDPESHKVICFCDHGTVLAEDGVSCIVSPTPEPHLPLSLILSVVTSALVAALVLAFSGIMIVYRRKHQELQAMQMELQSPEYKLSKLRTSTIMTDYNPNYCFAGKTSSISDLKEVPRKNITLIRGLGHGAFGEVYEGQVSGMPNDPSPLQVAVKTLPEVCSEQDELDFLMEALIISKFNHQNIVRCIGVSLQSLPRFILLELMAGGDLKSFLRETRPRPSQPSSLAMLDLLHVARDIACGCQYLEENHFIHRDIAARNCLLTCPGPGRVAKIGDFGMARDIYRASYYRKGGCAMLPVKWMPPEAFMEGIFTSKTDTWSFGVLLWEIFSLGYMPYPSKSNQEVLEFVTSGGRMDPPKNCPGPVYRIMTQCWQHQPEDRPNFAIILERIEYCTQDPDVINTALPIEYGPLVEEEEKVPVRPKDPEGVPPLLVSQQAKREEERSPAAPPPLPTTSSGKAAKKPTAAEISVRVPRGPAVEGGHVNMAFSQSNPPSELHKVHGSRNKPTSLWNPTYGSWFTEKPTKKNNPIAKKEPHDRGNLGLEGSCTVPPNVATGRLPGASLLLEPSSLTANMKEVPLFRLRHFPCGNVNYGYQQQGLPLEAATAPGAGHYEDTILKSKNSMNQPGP
Protocol: To measure the activity to inhibit ALK, each of the compounds prepared in examples listed in table 2 (2 μl) was loaded in a 384 well plate. Then, each of the compounds was mixed with anaplastic lymphoma kinase (ALK) enzyme (1 μl) and biotin conjugated peptide substrate (2 μl), followed by culture for 15 minutes. ATP solution (5 μl) was added thereto, followed by kinase reaction at room temperature for 30 minutes. […] Upon completion of the reaction, one hour culture was performed, followed by analysis using homogeneous time-resolved fluorescence (HTRF, Cisbio).
Data set [3] deals with Ba/F3 EML4-ALK WT cells. Description: cells. Particulars: read-out: Ba/F3 EML-ALK WT (IC50 μM). The format is cell-based, rodent.
In data set [4] the test system is H3122 induced lung cancer. Briefly: In vivo xenograft evaluation for H3122 induced lung cancer. The note with it: H3122 xenograft in nude mice, orally administered q.d.×14, FIG. 1. Set-up: species or system nude mice (BALB/c nu/nu). An excerpt:
The nude mice (BALB/c nu/nu, female) used in this experiment were purchased from Charles River Japan, Inc. and raised and tested under SPF (Specific Pathogen Free) control. The human non-small cell lung cancer cell line H3122 maintained by Korea Research Institute of Chemical Technology was used in this experiment.
The female nude mice adapted to the laboratory were implanted with cancer. Particularly, H3122 cells grown to the appropriate size for passage were cut into 3×3×3 mm^3, which was transplanted (s.c.) under the right side of the nude mouse. When the size of the implanted cancer reached about 200 mm^3, administration of the compound of example 58 was started; this was the first day (day 1). For the control, 20% PEG 400+3% Tween 80 in DDW was orally administered. For the experimental group (7 mice/group), the compound was dissolved in the same solvent of the control, which was orally administered 14 times in total (q.d.×14). The size of the cancer was measured every 2-3 days after the administration using a caliper and the diameters (long diameter (a), short diameter (b)) of the cancer were measured. The size of the cancer (volume, V) was calculated according to mathematical formula 1. Volume (mm^3)=a×b^2/2 Mathematical Formula 1
(In the mathematical formula 1,
a represents the horizontal length of the cancer; and
b represents the vertical short length of the cancer).

For data set [5], the system named is H2228 cells. The note with it: human, 3 days.
The subject of data set [6] is H2228 cells. Briefly: cells. The note with it: Homo sapiens, NCI-H2228, 72 h, read-out: Cytotoxicity H2228 (GI50 μM), H2228 cells, three days, SRB.

For the compound `COc1cc(C(C)(C)CN)c(C)cc1Nc1ncc(Cl)c(Nc2ccccc2S(=O)(=O)C(C)C)n1` [Example 56, N2-(4-(1-amino-2-methylpropane-2-yl)-2-methoxy-5-methylphenyl)-5-chloro-N4-(2-(isopropylsulfonyl)phenyl)pyrimidine-2,4-diamine], the GI50 in data set [1] (Homo sapiens, NCI-H3122, 72 h) was found to be 0.053 µM. Moreover, the IC50 in data set [2] is 0.0049 µM.
As for `COc1cc(-c2ccccc2)c(CCN)cc1Nc1ncc(Cl)c(Nc2ccccc2S(=O)(=O)C(C)C)n1` [Example 67], it took 0.23 µM to inhibit growth in data set [1] (Homo sapiens, NCI-H3122, 72 h) by half (GI50). Moreover, the IC50 in data set [3] (Ba/F3 EML4-ALK) worked out at 0.11 µM.
As to `COc1cc(CCN)c(C)cc1Nc1ncc(Cl)c(Nc2ccccc2S(=O)(=O)C(C)C)n1` [Example 55, N2-(4-(2-aminoethyl)-2-methoxy-5-methylphenyl)-5-chloro-N4-(2-(isopropylsulfonyl)phenyl)pyrimidine-2,4-diamine], the GI50 in data set [1] (Homo sapiens, NCI-H3122, 72 h) was 0.06 µM. Besides, the IC50 in data set [2] was 0.0027 µM.
The corresponding values for `COc1cc(C(C)(C)N(C)C)c(C)cc1Nc1ncc(Cl)c(Nc2ccccc2S(=O)(=O)C(C)C)n1` [Example 66, 5-chloro-N2-(4-(2-(dimethylamino)propane-2-yl)-2-methoxy-5-methylphenyl)-N4-(2-(isopropylsulfonyl)phenyl)pyrimidine-2,4-diamine] are 0.035 µM and 0.0028 µM.
For `Cc1cc(Nc2ncc(Cl)c(Nc3ccccc3S(=O)(=O)C(C)C)n2)c(OC(C)C)cc1C1CCNCC1` [LDK378, Ceritinib, reference compound], in data set [4], the “size of the cancer (volume)” value was “the effect of inhibiting cancer size was excellent, similar to LDK378”.
Turning to `COc1cc(C(C)(C)CN(C)C)c(C)cc1Nc1ncc(Cl)c(Nc2ccccc2S(=O)(=O)C(C)C)n1` [Example 65, 5-chloro-N2-(4-(1-(dimethylamino)-2-methylpropane-2-yl)-2-methoxy-5-methylphenyl)-N4-(2-(isopropylsulfonyl)phenyl)pyrimidine-2,4-diamine], the GI50 in data set [1] (Homo sapiens, NCI-H3122, 72 h) amounted to 0.026 µM. Further, the IC50 in data set [3] (Ba/F3 EML4-ALK) is 0.014 µM; in data set [2] it was 0.0022 µM.
The compound `COc1cc(C(C)(C)NC=O)c(C)cc1Nc1ncc(Cl)c(Nc2ccccc2S(=O)(=O)C(C)C)n1` [Example 61, N-(2-(4-((5-chloro-4-((2-(isopropylsulfonyl)phenyl)amino)pyrimidine-2-yl)amino)-5-methoxy-2-methylphenyl)propane-2-yl)formamide] registered a GI50 in data set [1] (Homo sapiens, NCI-H3122, 72 h) of 0.052 µM. For the same compound, the IC50 in data set [3] (Ba/F3 EML4-ALK) stood at 0.024 µM.
For the compound `CNC(C)(C)c1cc(OC)c(Nc2ncc(Cl)c(Nc3ccccc3S(=O)(=O)C(C)C)n2)cc1C` [Example 64, 5-chloro-N4-(2-(isopropylsulfonyl)phenyl)-N2-(2-methoxy-5-methyl-4-(2-(methylamino)propane-2-yl)phenyl)pyrimidine-2,4-diamine], in data set [1] (Homo sapiens, NCI-H3122, 72 h), halving of growth (GI50) required 0.029 µM. Besides, the results for the IC50 in data set [3] (Ba/F3 EML4-ALK) and in data set [2] were 0.015 µM and 0.0012 µM, respectively.
On to `COc1cc(C(C)(C)C#N)c(C)cc1Nc1ncc(Cl)c(Nc2ccccc2S(=O)(=O)C(C)C)n1` [Example 54, 2-(4-((5-chloro-4-((2-(isopropylsulfonyl)phenyl)amino)pyrimidine-2-yl)amino)-5-methoxy-2-methylphenyl)-2-methylpropanenitrile], for which the GI50 in data set [1] (Homo sapiens, NCI-H3122, 72 h) is 0.25 µM. Also, the IC50 in data set [3] (Ba/F3 EML4-ALK) is 0.25 µM.
Compound `COc1cc(CCN(C)C)c(C)cc1Nc1ncc(Cl)c(Nc2ccccc2S(=O)(=O)C(C)C)n1` [Example 58, 5-chloro-N2-(4-(2-(dimethylamino)ethyl)-2-methoxy-5-methylphenyl)-N4-(2-(isopropylsulfonyl)phenyl)pyrimidine-2,4-diamine] displayed a GI50 in data set [1] (Homo sapiens, NCI-H3122, 72 h) of 0.013 µM. Also, the IC50 in data set [3] (Ba/F3 EML4-ALK) is 0.01 µM; in data set [2] it was 0.0014 µM. In data set [4], the “size of the cancer (volume)” value is “the effect of inhibiting cancer size was excellent, similar to LDK378”.
`COc1cc(CC#N)c(C)cc1Nc1ncc(Cl)c(Nc2ccccc2S(=O)(=O)C(C)C)n1` [Example 53, 2-(4-((5-chloro-4-((2-(isopropylsulfonyl)phenyl)amino)pyrimidine-2-yl)amino)-5-methoxy-2-methylphenyl)acetonitrile] yielded a GI50 in data set [1] (Homo sapiens, NCI-H3122, 72 h) of 0.074 µM. Also, the results for the IC50 in data set [3] (Ba/F3 EML4-ALK) and in data set [3] were at most 0.1 µM and 0.061 µM, respectively.
In data set [1] (Homo sapiens, NCI-H3122, 72 h), `COc1cc(C(C)(C)CNC=O)c(C)cc1Nc1ncc(Cl)c(Nc2ccccc2S(=O)(=O)C(C)C)n1` [Example 59, N-(2-(4-((5-chloro-4-((2-(isopropylsulfonyl)phenyl)amino)pyrimidine-2-yl)amino)-5-methoxy-2-methylphenyl)-2-methylpropyl)formamide] had a GI50 of 0.063 µM. Moreover, the IC50 in data set [2] was determined as 0.0078 µM.
In the same order, the values of `COc1cc(CCNC=O)c(C)cc1Nc1ncc(Cl)c(Nc2ccccc2S(=O)(=O)C(C)C)n1` [Example 62, N-(4-((5-chloro-4-((2-(isopropylsulfonyl)phenyl)amino)pyrimidine-2-yl)amino)-5-methoxy-2-methylphenethyl)formamide] are 0.068 µM and 0.004 µM.
Consider `COc1ccc(CCN(CCO)CCO)cc1Nc1ncc(Cl)c(Nc2ccccc2S(=O)(=O)C(C)C)n1` [Example 39, 2,2′-(3-(5-chloro-4-(2-(isopropylsulfonyl)phenylamino)pyrimidine-2-ylamino)-4-methoxyphenethylazeindiyl)diethanol], for which the GI50 in data set [1] (Homo sapiens, NCI-H3122, 72 h) was 0.93 µM; in data set [5], 870 nM; in data set [6] it was at most 1 µM.
With `COc1cc(CN(C)C)c(C)cc1Nc1ncc(Cl)c(Nc2ccccc2S(=O)(=O)C(C)C)n1` [Example 70, 5-chloro-N2-(4-((dimethylamino)methyl)-2-methoxy-5-methylphenyl)-N4-(2-(isopropylsulfonyl)phenyl)pyrimidine-2,4-diamine], halving of growth in data set [1] (Homo sapiens, NCI-H3122, 72 h) (GI50) required 0.037 µM. Also, the IC50 in data set [3] (Ba/F3 EML4-ALK) amounted to 0.021 µM.
In turn, `CNCCc1cc(OC)c(Nc2ncc(Cl)c(Nc3ccccc3S(=O)(=O)C(C)C)n2)cc1C` [Example 63, 5-chloro-N4-(2-(isopropylsulfonyl)phenyl)-N2-(2-methoxy-5-methyl-4-(2-(methylamino)ethyl)phenyl)pyrimidine-2,4-diamine] registered a GI50 in data set [1] (Homo sapiens, NCI-H3122, 72 h) of 0.02 µM. Besides, the IC50 in data set [2] turned out to be 0.0015 µM.
Regarding `C=C(C)c1cc(OC)c(Nc2ncc(Cl)c(Nc3ccccc3S(=O)(=O)C(C)C)n2)cc1CCN` [Example 75, N2-(5-(2-aminoethyl)-2-methoxy-4-(prop-1-ene-2-yl)phenyl)-5-chloro-N4-(2-(isopropylsulfonyl)phenyl)pyrimidine-2,4-diamine], in data set [1] (Homo sapiens, NCI-H3122, 72 h), the GI50 is 0.23 µM. The IC50 in data set [3] (Ba/F3 EML4-ALK) stood at 0.11 µM.
In turn, `CNCC(C)(C)c1cc(OC)c(Nc2ncc(Cl)c(Nc3ccccc3S(=O)(=O)C(C)C)n2)cc1C` [Example 60, 5-chloro-N4-(2-(isopropylsulfonyl)phenyl)-N2-(2-methoxy-5-methyl-4-(2-methyl-1-(methylamino)propane-2-yl)phenyl)pyrimidine-2,4-diamine] yielded a GI50 in data set [1] (Homo sapiens, NCI-H3122, 72 h) of 0.041 µM. Also, the IC50 in data set [3] (Ba/F3 EML4-ALK) was 0.019 µM; in data set [2] it was 0.0015 µM.
Regarding `C=C(C)c1cc(OCC)c(Nc2ncc(Cl)c(Nc3ccccc3S(=O)(=O)C(C)C)n2)cc1CCN` [Example 74, N2-(5-(2-aminoethyl)-2-ethoxy-4-(prop-1-ene-2-yl)phenyl)-5-chloro-N4-(2-(isopropylsulfonyl)phenyl)pyrimidine-2,4-diamine], growth in data set [1] (Homo sapiens, NCI-H3122, 72 h) was halved (GI50) at 0.77 µM. Further, the IC50 in data set [3] (Ba/F3 EML4-ALK) stood at 0.36 µM.
For the compound `COC(=O)CCNCCc1ccc(OC)c(Nc2ncc(Cl)c(Nc3ccccc3S(=O)(=O)C(C)C)n2)c1` [Example 24, methyl 3-(3-(5-chloro-4-(2-(isopropylsulfonyl)phenylamino)pyrimidine-2-ylamino)-4-methoxyphenethylamino)propanoate], the GI50 is 0.09 µM in data set [1]; at most 0.1 µM in data set [1] (Homo sapiens, NCI-H3122, 72 h); 660 nM in data set [5]; at most 1 µM in data set [6].
For the compound `CNCc1cc(OC)c(Nc2ncc(Cl)c(Nc3ccccc3S(=O)(=O)C(C)C)n2)cc1C` [Example 72, 5-chloro-N4-(2-(isopropylsulfonyl)phenyl)-N2-(2-methoxy-5-methyl-4-((methylamino)methyl)phenyl)pyrimidine-2,4-diamine], halving of growth in data set [1] (Homo sapiens, NCI-H3122, 72 h) (GI50) required 0.025 µM. Further, the IC50 is 0.015 µM in data set [3] (Ba/F3 EML4-ALK) and 0.00174 µM in data set [2].
